In article PMC4457358, “Structure–activity studies in the development of a hydrazone based inhibitor of adipose-triglyceride lipase (ATGL)” (Bioorganic & Medicinal Chemistry, 2015):

Tests used:
murine ATGL = biological target: T1, murine ATGL (Mus musculus, UniProt Q8BJ56); assay: Triglyceride hydrolase activity assay with COS7-cell lysate overexpressing recombinant murine ATGL, radiolabelled triolein substrate; format: biochemical; parameters: IC50 (%): unit not given here; conditions: for inhibition at 200 µM: 1 h, read-out: I200 (%); for inhibition at 200 µM / I200 (%): ATGL-inhibition efficiency at 200 μM inhibitor; for IC50 / biological activity against ATGL (in words): COS7-cell lysate overexpressing murine ATGL; for IC50 (%): COS7-cell lysate overexpressing recombinant murine ATGL, increasing inhibitor concentrations;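 for all read-outs here: radioactivity from the triolein substrate quantified by liquid scintillation counting after phase separation, reflecting triglyceride hydrolase activity of murine ATGL in lysates of transfected COS-7 cells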
T1 construct: expressed in transfected cells; host or cells: COS-7 (ATCC CRL-1651), transient transfection with Metafectene; crude lysate after 1000 x g spin
T1 sequence (Q8BJ56 1-486): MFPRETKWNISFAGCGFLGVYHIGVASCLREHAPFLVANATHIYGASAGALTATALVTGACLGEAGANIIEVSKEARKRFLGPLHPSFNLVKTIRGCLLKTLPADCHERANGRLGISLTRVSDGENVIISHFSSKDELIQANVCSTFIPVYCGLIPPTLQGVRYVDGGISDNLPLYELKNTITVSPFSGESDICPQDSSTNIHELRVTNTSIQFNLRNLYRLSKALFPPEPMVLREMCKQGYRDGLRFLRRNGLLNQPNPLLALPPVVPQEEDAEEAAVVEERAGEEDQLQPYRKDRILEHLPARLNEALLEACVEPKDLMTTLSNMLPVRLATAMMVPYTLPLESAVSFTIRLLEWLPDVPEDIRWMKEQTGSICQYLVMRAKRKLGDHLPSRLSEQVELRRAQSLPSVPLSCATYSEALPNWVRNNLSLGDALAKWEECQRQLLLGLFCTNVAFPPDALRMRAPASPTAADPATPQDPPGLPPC

| Compound | inhibition at 200 µM (murine ATGL) [%] | melting point | also measured |
| --- | --- | --- | --- |
| COc1ccc(/C=N/N2CCN(c3ccccc3)CC2)cc1OC [Compound 1b, (E)-N-(3,4-Dimethoxybenzylidene)-4-phenylpiperazin-1-amine] | 65 | 153 to 154 °C | – |
| COc1ccc(/C=N/N2CCN(c3ccccc3)CC2)cc1O [Compound 1c, (E)-2-Methoxy-5-((4-phenylpiperazin-1-ylimino)methyl)phenol] | 56 | 180 °C (dec.) | – |
| COc1cc(/C=N/N2CCN(c3ccccc3)CC2)ccc1O [Compound 1d, (E)-2-Methoxy-4-((4-phenylpiperazin-1-ylimino)methyl)phenol] | 82 | – | – |
| Oc1cccc(/C=N/N2CCN(c3ccccc3)CC2)c1 [Compound 1e, (E)-3-((4-Phenylpiperazin-1-ylimino)methyl)phenol] | 71 | 190 °C (dec.) | – |
| Oc1ccccc1/C=N/N1CCN(c2ccccc2)CC1 [Compound 1f, (E)-2-((4-Phenylpiperazin-1-ylimino)methyl)phenol] | 64 | 138 to 142 °C | – |
| Oc1ccc(/C=N/N2CCN(c3ccccc3)CC2)cc1 [Compound 1g, (E)-4-((4-Phenylpiperazin-1-ylimino)methyl)phenol] | 85 | 192 °C (dec.) | – |
| COc1cc(OC)c(OC)cc1/C=N/N1CCN(c2ccccc2)CC1 [Compound 1k, (E)-4-Phenyl-N-(2,4,5-trimethoxybenzyliden)piperazin-1-amine] | 43 | 153 to 156 °C | – |
| COc1cc(/C=N/N2CCN(c3ccccc3)CC2)cc(OC)c1OC [Compound 1l, (E)-4-Phenyl-N-(3,4,5-trimethoxybenzylidene)piperazin-1-amine] | 41 | 93 to 98 °C | – |
| Fc1ccc(/C=N/N2CCN(c3ccccc3)CC2)cc1F [Compound 1m, (E)-N-(3,4-Difluorobenzylidene)-4-phenylpiperazin-1-amine] | 67 | 152 to 154 °C | IC50 (murine ATGL): 75 µM |
| Clc1ccc(/C=N/N2CCN(c3ccccc3)CC2)cc1Cl [Compound 1n, (E)-N-(3,4-Dichlorobenzylidene)-4-phenylpiperazin-1-amine] | 20 | 176 to 178 °C | biological activity against ATGL (in words) (murine ATGL): inactive |
| Clc1ccc(/C=N/N2CCN(c3ccccc3)CC2)c(Cl)c1 [Compound 1o, (E)-N-(2,4-Dichlorobenzylidene)-4-phenylpiperazin-1-amine] | 42 | 113 to 115 °C | – |
| O=[N+]([O-])c1ccccc1/C=N/N1CCN(c2ccccc2)CC1 [Compound 1p, (E)-N-(2-Nitrobenzylidene)-4-phenylpiperazin-1-amine] | 60 | 103 to 106 °C | – |
| Brc1ccccc1/C=N/N1CCN(c2ccccc2)CC1 [Compound 1q, (E)-N-(2-Bromobenzylidene)-4-phenylpiperazin-1-amine] | 73 | 88 to 90 °C | – |
| N#Cc1ccc(/C=N/N2CCN(c3ccccc3)CC2)cc1 [Compound 1s, (E)-4-((4-Phenylpiperazin-1-ylimino)methyl)benzonitrile] | 76 | – | IC50 (murine ATGL): 50 µM |
| Cc1ccc(/C=N/N2CCN(c3ccccc3)CC2)cc1 [Compound 1t, (E)-N-(4-Methylbenzylidene)-4-phenylpiperazin-1-amine] | 22 | 184 to 186 °C | biological activity against ATGL (in words) (murine ATGL): inactive |
| CN(C)c1ccc(/C=N/N2CCN(c3ccccc3)CC2)cc1 [Compound 1u, (E)-N-(4-(Dimethylamino)benzylidene)-4-phenylpiperazin-1-amine] | 5 | 190 °C (dec.) | – |
| CC(=O)Nc1ccc(/C=N/N2CCN(c3ccccc3)CC2)cc1 [Compound 1v, (E)-N-(4-((4-Phenylpiperazin-1-ylimino)methyl)phenyl)acetamide] | 14 | – | – |
| CN(CCO)c1ccc(/C=N/N2CCN(c3ccccc3)CC2)cc1 [Compound 1w, (E)-2-(Methyl(4-((4-phenylpiperazin-1-ylimino)methyl)phenyl)amino)ethanol] | 5 | – | – |
| C(=N\N1CCN(c2ccccc2)CC1)/c1ccc2c(c1)OCO2 [Compound 1x, (E)-N-(Benzo[d][1,3]dioxol-5-ylmethylen)-4-phenylpiperazin-1-amine] | 64 | 125 to 129 °C | – |
| C(=N\N1CCN(c2ccccc2)CC1)/c1ccc2c(c1)OCCO2 [Compound 1y, (E)-N-((2,3-Dihydrobenzol[b][1,4]dioxin-6-yl)methylen)-4-phenylpiperazin-1-amine] | 27 | 186 to 187 °C | – |
| O=c1[nH]c2ccc(/C=N/N3CCN(c4ccccc4)CC3)cc2[nH]1 [Compound 1z, (E)-5-((4-Phenylpiperazin-1-ylimino)methyl)-1H-benzo[d]imidazol-2(3H)-one] | 16 | 320 to 330 °C (dec.) | – |
| Oc1ccc(/C=N/N2CCN(c3ccc(F)cc3)CC2)c(O)c1 [Compound 3b, (E)-4-((4-(4-Fluorophenyl)piperazin-1-ylimino)methyl)benzene-1,3-diol] | 78 | 176 to 178 °C | IC50 (murine ATGL): 50 µM |
| COc1ccc(C(=O)NN2CCN(c3ccccc3)CC2)cc1OC [Compound 10, 3,4-Dimethoxy-N-(4-phenylpiperazin-1-yl)benzamide] | 38 | – | biological activity against ATGL (in words) (murine ATGL): inactive |
| (E)-3-((4-Phenylpiperazin-1-ylimino)methyl)benzonitrile [Compound 1r] | – | – | I200 (%) (murine ATGL): 60%; IC50 (%) (murine ATGL): 120 |
| (E)-4-Phenyl-N-(4-propoxybenzylidene)piperazin-1-amine [Compound 1i] | – | – | I200 (%) (murine ATGL): 14%; IC50 (%) (murine ATGL): >200 |
| (E)-N-(4-Phenoxybenzylidene)-4-phenylpiperazin-1-amine [Compound 1j] | – | – | I200 (%) (murine ATGL): 24%; IC50 (%) (murine ATGL): >200 |

Further lines, with some results ahead:

| inhibition at 200 µM (murine ATGL) [%] | melting point | Compound | also measured |
| --- | --- | --- | --- |
| 12 | – | CCCC/C=N/N1CCN(c2ccccc2)CC1 [Compound 2a, (E)-N-Pentyliden-4-phenylpiperazin-1-amine] | – |
| 12 | 48 °C | CCC/C=C/C=N/N1CCN(c2ccccc2)CC1 [Compound 2b, (E)-N-((E)-Hex-2-enyliden)-4-phenylpiperazin-1-amine] | – |
| 49 | 69 to 71 °C | C(=N\N1CCN(c2ccccc2)CC1)/C1CCCCC1 [Compound 2c, (E)-N-(Cyclohexylmethylen)-4-phenylpiperazin-1-amine] | – |
| 58 | 118 to 120 °C | C1=C(/C=N/N2CCN(c3ccccc3)CC2)CCCC1 [Compound 2d, (E)-N-(Cyclohexenylmethylen)-4-phenylpiperazin-1-amine] | biological activity against ATGL (in words) (murine ATGL): moderate activity |
| 16 | 117 to 119 °C | C(=N\N1CCN(c2ccccc2)CC1)/c1ccccn1 [Compound 2e, (E)-4-Phenyl-N-(pyridine-2-ylmethylen)piperazin-1-amine] | – |
| 46 | 111 to 113 °C | C(=N\N1CCN(c2ccccc2)CC1)/c1cccnc1 [Compound 2f, (E)-4-Phenyl-N-(pyridine-3-ylmethylen)piperazin-1-amine] | – |
| 60 | 156 to 158 °C | C(=N\N1CCN(c2ccccc2)CC1)/c1ccncc1 [Compound 2g, (E)-4-Phenyl-N-(pyridine-4-ylmethylen)piperazin-1-amine] | biological activity against ATGL (in words) (murine ATGL): moderate activity |
| < 1 | 195 to 198 °C (dec.) | C(=N\N1CCN(c2ccccc2)CC1)/c1ccc2ccccc2c1 [Compound 2h, (E)-N-(Naphthalene-2-ylmethylen)-4-phenylpiperazin-1-amine] | – |
| 8 | 210 to 212 °C | C(=N\N1CCN(c2ccccc2)CC1)/c1ccc2ccccc2n1 [Compound 2i, (E)-4-Phenyl-N-(quinoline-2-ylmethylen)-piperazin-1-amine] | – |
| 49 | 118 °C | C(=N\N1CCN(c2ccccc2)CC1)/c1cccc2ccccc12 [Compound 2j, (E)-N-(Naphthalene-1-methylen)-4-phenylpiperazin-1-amine] | – |
| 19 | 270 to 273 °C (dec.) | Oc1ccc(/C=N/N2CCN(c3ccncc3)CC2)c(O)c1 [Compound 3a, (E)-4-((4-(Pyridine-4-yl)piperazin-1-ylimino)methyl)benzene-1,3-diol] | – |
| 44 | – | Cc1cccc(N2CCN(/N=C/c3ccc(O)cc3O)CC2)c1 [Compound 3c, (E)-4-((4-m-Tolylpiperazin-1-ylimino)methyl)benzene-1,3-diol] | – |
| 87 | – | Oc1ccc(/C=N/N2CCCN(c3ccccc3)CC2)c(O)c1 [Compound 3j, (E)-4-((4-Phenyl-1,4-diazepan-1-ylimino)methyl)benzene-1,3-diol] | – |
